These results are taken from US9782424B2, “Synergistic combination comprising avermectins and a NSAID for tumor inhibition” (Ectin Research AB, priority 2011, dated 2017).

The test system of assay [1] is breast cancer cell line 2R-75-1. In words: Morphology of cultured tumor cells, ZR-75-1. The format is cell-based, human. As to conditions: ivermectin 10e-4 to 10e-10 mol/L (FIG. 2). The protocol:
(§1) Commercially available human tumor cell lines were purchased from ATCC (ATCC/LGC-standards, Borás, Sweden). Cell lines from urinary bladder (UM-UC-3, #CRL-1749), colorectal carcinoma (Colo205, #CCL-222 and HT29, #HTB-38), prostate carcinoma (LNCaP, #CRL-1740) and breast carcinoma (ZR-75-1, #CRL-1500) were purchased and stored in liquid nitrogen. Cells were cultured in Roswell Park Memorial Institute media (RPMI-1640) or minimum essential medium with Earl's salts (EMEM) supplemented with 10% Foetal calf serum (FCS, Sigma) and cultured using a 37° C. cell culture incubator (Forma Scientific, NinoLab, Kungsbacka, Sweden) with 5% CO2 humidified atmosphere. Tumor cell lines were handled aseptically using a laminar airflow (LAF) bench (Holten 2448, Ninolab, Sweden) and stored in a liquid nitrogen tank and were initiated in culture as previously described (Falk P. Experimental models of the peritoneal environment: Effects of TGF-beta and Hyaluronan. Göteborg: University of Gothenburg; 2008). Briefly, ampoules of frozen cells were thawed by submerging into a 37° C. water bath for 45 s. Cells were resuspended in 10 ml of preheated RPMI-1640 with 10% FCS and centrifuged in 260 g for 10 min. […] Cells were regularly monitored using an inverted microscope connected to a digital photo equipment (Axiovert 25 and Axiovision, Zeiss, Carl Zeiss AG, Germany) (FIG. 1). […]

Assay [2] concerns urinary bladder cells (UM-UC-3). In words: Morphology of cultured tumor cells, UM-UC-3. In kind it is cell-based, human. Particulars: ivermectin 100 μM, 24 hours (FIG. 6). The protocol: as §1
For assay [3], the system named is advanced urothelial cancer with extensive metastasis. Description: Case observation of a patient given ivermectin. As to conditions: middle age person, standard treatment dosage for Strongyloidiasis, no other medication. The format is in vivo, human. The text has this: The present studies are based on an observation describing a middle age person suffering from an advanced urothelial cancer with extensive metastasis. Due to a tropical infection (Strongyloidiasis) this patient received the substance ivermectin as a standard treatment dosage.
The present studies are based on a case report describing a middle age person suffering from an advanced urothelial cancer with extensive metastasis. Due to a tropical infection this patient received the substance ivermectin. […] The reason for this is not known however a direct effect of the substance ivermectin could not be precluded.

In assay [4] the test system is prostatic cell line (LNCaP). In words: XTT-assay proliferation rate, prostatic cell line. The format is cell-based, human. As to conditions: for Proliferation rate compared to untreated control: LNCaP (Table 5). The protocol: Commercially available human tumor cell lines were purchased from ATCC (ATCC/LGC-standards, Borás, Sweden). […] Briefly, ampoules of frozen cells were thawed by submerging into a 37° C. water bath for 45 s. […] With supernatant discarded, cell pellets were further resuspended with 5 ml complete medium into 25 cm^2 cell culture flasks (Cell+, Sarstedt, Nümbrecht, Germany). Tumor cells were cultured until sub-confluence and further sub-cultured with Trypsin (0.5%), EDTA (0.2%) solution (T4174, TE-10x, Sigma) in sterile sodium chloride. Culture media was changed two-three times a week. Culture flasks (Cell+, Sarstedt, Nümbrecht, Germany) and culture plates (Falcon/BD, Franklin Lakes, N.J., USA) were used for experimental set-ups. Cells were regularly monitored using an inverted microscope connected to a digital photo equipment (Axiovert 25 and Axiovision, Zeiss, Carl Zeiss AG, Germany) (FIG. 1). Described culture techniques and equipment have been used extensively in the laboratory
The proliferation rates of the different human tumor cell lines were studied using a method based on the conversion of a sodium salt (XTT-assay, Sigma) into a stable orange color that could be analyzed in a spectrophotometer. […] The color change was measured using a 96-well plate reader with software to calculate the absorbance at 450 nm (V-max/Softmax Pro, Molecular Devices, USA).
Increasing concentrations of substance ivermectin was added with an 8-channel pipette (Titertek, Kem-En-Tec, Taastrup, Denmark) together with sterile pipette tips (Molecular Bioproducts, San Diego, Calif., USA). Cell cultures including active substances were incubated for 24 hours (and 96 hours). Untreated wells including culture medium only served as untreated controls. The XTT-assay substrate was added and after gentle agitation using a micro plate shaker, absorbencies at 450 and 650 nm were measured. Levels from medium were subtracted and compared with control wells, using culture medium only.

“Also recorded” adds a separate entry of the source.

Consider “22,23-dihydroavermectin B1a+22,23-dihydroavermectin B1b [ivermectin]”, for which, in assay [1], the “Morphological effects over the concentration series” value is “affected by the highest concentration 10e-4 mol/L only”. The Effect on morphology entry in assay [2] was “affected”. In assay [3], the “Clinical outcome of the urothelial cancer” value is “all the clinical signs of the urothelial cancer disappeared; also recorded: treated both the tropical infection and the urothelial cancer”. The “Proliferation rate compared to untreated control” value in assay [4] (IVM 1 μmol/L alone) came out at 95.4 ± 0.6%; in assay [4] (IVM 10 μmol/L alone) it was 106.4±2.2%; in assay [4] (IVM 10 μmol/L alone, listed as IVM), 106.4 ± 2.2%; in assay [4] (IVM 100 μmol/L alone), 45.7 ± 2.2%. Further, the “Proliferation rate in per cent compared to untreated medium control” value in assay [4] (LNCaP, ivermectin 10e-9 mol/L) stood at 91 ± 4%; in assay [4] (LNCaP, ivermectin 10e-8 mol/L), 93 ± 5%; in assay [4] (LNCaP, ivermectin 10e-7 mol/L) it was 94 ± 5%; in assay [4] (LNCaP, ivermectin 10e-6 mol/L), 99 ± 4%; in assay [4] (LNCaP, ivermectin 10e-4 mol/L), 8±1%. The “Effect on proliferation rate compared to untreated control” value in assay [4] (LNCaP, ivermectin 100 μM alone or in combination) is given as “reduced the proliferation rate”.
